Patent publication US20250263408A1 (Uniquest Pty Ltd, priority 2022, published 2025)

Tests used:
[1] = test system: Ba/F3-WT (wild type) cells; test: Ba/F3 Proliferation Assay, Ba/F3-WT (wild type) cells with mIL-3 (Resazurin); format: cell-based; conditions: Mus musculus, BaF3, 48 h, Ba/F3-WT cells +mIL-3, 48-hour incubation
[2] = molecular target: T1, Ba/F3-Syk cells (Homo sapiens, UniProt P43405); test: Ba/F3 Proliferation Assay, Ba/F3-Syk cells (Resazurin); format: cell-based; conditions: 48-hour incubation
T1 construct: fused on or other part: Possible but unprinted fusion partner: TEL (ETV6), the usual partner for Ba/F3 lines transformed by Syk; Nothing on a partner is printed

Compound | EC50 [1] [nM] | EC50 [2] [nM]
FC1(F)CC1n1ccc(-c2cc3ncccc3c(OC[C@@H]3CNCCO3)n2)c1 (stereo partly drawn) [Compound 6.17, 7-[1-(2,2-difluorocyclopropyl)-1H-pyrrol-3-yl]-5-{[(2S)-morpholin-2-yl]methoxy}-1,6-naphthyridine] | 2400 | 79.9
CC1(C)CNC[C@@H](COc2nc(-c3ccn(C4CC4(F)F)c3)cc3ncccc23)O1 (stereo partly drawn) [Compound 6.18, 7-[1-(2,2-difluorocyclopropyl)-1H-pyrrol-3-yl]-5-{[(2S)-6,6-dimethylmorpholin-2-yl]methoxy}-1,6-naphthyridine] | 3290 | 36.2
CC1(C)CNC[C@@H](COc2nc(-c3cnn(CC4CC4)c3)cc3ncccc23)O1 [Compound 6.21, 7-[1-(cyclopropylmethyl)-1H-pyrazol-4-yl]-5-{[(2S)-6,6-dimethylmorpholin-2-yl]methoxy}-1,6-naphthyridine] | 1510 | 12.6
CC(C)n1ccc(-c2cc3ncccc3c(OC[C@@H]3CNCCCO3)n2)c1 [Compound 6.24, 5-{[(2S)-1,4-oxazepan-2-yl]methoxy}-7-[1-(propan-2-yl)-1H-pyrrol-3-yl]-1,6-naphthyridine] | 2820 | 16.4
FC(F)Cn1cc(-c2cc3ncccc3c(OC[C@@H]3CNCCCO3)n2)cn1 [Compound 6.27, 7-[1-(2,2-difluoroethyl)-1H-pyrazol-4-yl]-5-{[(2S)-1,4-oxazepan-2-yl]methoxy}-1,6-naphthyridine] | 5590 | 52.2
COCCn1ccc(-c2cc3ncccc3c(O[C@H](C)[C@@H]3CNCCO3)n2)c1 [Compound 6.29, 7-[1-(2-methoxyethyl)-1H-pyrrol-3-yl]-5-[(1R)-1-[(2S)-morpholin-2-yl]ethoxy]-1,6-naphthyridine] | 1440 | 30.7
CCn1ccc(-c2cc3ncccc3c(O[C@H](C)[C@@H]3CNCCO3)n2)c1 [Compound 6.31, 7-(1-ethyl-1H-pyrrol-3-yl)-5-[(1R)-1-[(2S)-morpholin-2-yl]ethoxy]-1,6-naphthyridine] | 3340 | 49.4
CC[C@@H](C)n1cc(-c2cc3ncccc3c(OC[C@@H]3CNCCO3)n2)cn1 [Compound 6.32, 7-{1-[(2R)-butan-2-yl]-1H-pyrazol-4-yl}-5-{[(2S)-morpholin-2-yl]methoxy}-1,6-naphthyridine] | 2020 | 92
CC[C@@H](C)n1cc(-c2cc3ncccc3c(OC[C@@H]3CNCC(C)(C)O3)n2)cn1 [Compound 6.33, 7-{1-[(2R)-butan-2-yl]-1H-pyrazol-4-yl}-5-{[(2S)-6,6-dimethylmorpholin-2-yl]methoxy}-1,6-naphthyridine] | 3760 | 49.3
CC[C@H](C)n1cc(-c2cc3ncccc3c(OC[C@@H]3CNCCO3)n2)cn1 [Compound 6.34, 7-{1-[(2S)-butan-2-yl]-1H-pyrazol-4-yl}-5-{[(2S)-morpholin-2-yl]methoxy}-1,6-naphthyridine] | 2080 | 91.8
CC[C@H](C)n1cc(-c2cc3ncccc3c(OC[C@@H]3CNCC(C)(C)O3)n2)cn1 [Compound 6.35, 7-{1-[(2S)-butan-2-yl]-1H-pyrazol-4-yl}-5-{[(2S)-6,6-dimethylmorpholin-2-yl]methoxy}-1,6-naphthyridine] | 2300 | 23.6
CC1(Cn2cc(-c3cc4ncccc4c(OC[C@@H]4CNCCO4)n3)cn2)COC1 [Compound 6.36] | 1390 | 81.6
FC1(F)CC(Cn2cc(-c3cc4ncccc4c(OC[C@@H]4CNCCO4)n3)cn2)C1 [Compound 6.37] | 560 | 60.3
CC1(C)CNC[C@@H](COc2nc(-c3cnn(CC4CC(F)(F)C4)c3)cc3ncccc23)O1 [Compound 6.38, 7-{1-[(3,3-difluorocyclobutyl)methyl]-1H-pyrazol-4-yl}-5-{[(2S)-6,6-dimethylmorpholin-2-yl]methoxy}-1,6-naphthyridine] | 972 | 25.9
CC(F)(F)Cn1cc(-c2cc3ncccc3c(OC[C@@H]3CNCC(C)(C)O3)n2)cn1 [Compound 6.39, 7-[1-(2,2-difluoropropyl)-1H-pyrazol-4-yl]-5-{[(2S)-6,6-dimethylmorpholin-2-yl]methoxy}-1,6-naphthyridine] | 1520 | 21.4
CC(F)(F)Cn1cc(-c2cc3ncccc3c(OC[C@@H]3CNCCO3)n2)cn1 [Compound 6.40, 7-[1-(2,2-difluoropropyl)-1H-pyrazol-4-yl]-5-{[(2S)-morpholin-2-yl]methoxy}-1,6-naphthyridine] | 1440 | 59.8
FC1(F)CC(Cn2ccc(-c3cc4ncccc4c(OC[C@@H]4CNCCO4)n3)c2)C1 [Compound 6.42, 7-{1-[(3,3-difluorocyclobutyl)methyl]-1H-pyrrol-3-yl}-5-{[(2S)-morpholin-2-yl]methoxy}-1,6-naphthyridine] | 838 | 15.1
CC(F)(F)Cn1ccc(-c2cc3ncccc3c(OC[C@@H]3CNCCO3)n2)c1 [Compound 6.43, 7-[1-(2,2-difluoropropyl)-1H-pyrrol-3-yl]-5-{[(2S)-morpholin-2-yl]methoxy}-1,6-naphthyridine] | > 1000 | 14.9

Compound | EC50 [1] [nM] | EC50 [2] [nM]
c1cnc2cc(-c3cnn([C@H]4CCOC4)c3)nc(OC[C@@H]3CNCCO3)c2c1 [Compound 6.44, 5-{[(2S)-morpholin-2-yl]methoxy}-7-{1-[(3S)-oxolan-3-yl]-1H-pyrazol-4-yl}-1,6-naphthyridine] | > 1000 | 32.9
c1cnc2cc(-c3cnn([C@@H]4CCOC4)c3)nc(OC[C@@H]3CNCCO3)c2c1 [Compound 6.45, 5-{[(2S)-morpholin-2-yl]methoxy}-7-{1-[(3R)-oxolan-3-yl]-1H-pyrazol-4-yl}-1,6-naphthyridine] | > 1000 | 68.7
CC(C)n1ccc(-c2cc(OC[C@@H]3CNCCO3)c3cccnc3c2)c1 [Compound 7.1, 5-{[(2S)-morpholin-2-yl]methoxy}-7-[1-(propan-2-yl)-1H-pyrrol-3-yl]quinoline] | 2780 | 47.9
c1cnc2cc(-c3ccn(C4CCC4)c3)cc(OC[C@@H]3CNCCO3)c2c1 [Compound 7.3, 7-(1-cyclobutyl-1H-pyrrol-3-yl)-5-{[(2S)-morpholin-2-yl]methoxy}quinoline] | 2880 | 74
CC(C)n1ccc(-c2cc(OC[C@@H]3CNCC(C)(C)O3)c3cccnc3c2)c1 [Compound 7.4, 5-{[(2S)-6,6-dimethylmorpholin-2-yl]methoxy}-7-[1-(propan-2-yl)-1H-pyrrol-3-yl]quinoline] | 2690 | 29.7
CC1(C)CNC[C@@H](COc2cc(-c3ccn(C4CCC4)c3)cc3ncccc23)O1 [Compound 7.5, 7-(1-cyclobutyl-1H-pyrrol-3-yl)-5-{[(2S)-6,6-dimethylmorpholin-2-yl]methoxy}quinoline] | 2100 | 36
FC1(F)CC1n1ccc(-c2cc(OC[C@@H]3CNCCO3)c3cccnc3c2)c1 (stereo partly drawn) [Compound 7.7, 7-[1-(2,2-difluorocyclopropyl)-1H-pyrrol-3-yl]-5-{[(2S)-morpholin-2-yl]methoxy}quinoline] | 4330 | 86.5
CC1(C)CNC[C@@H](COc2cc(-c3ccn(C4CC4(F)F)c3)cc3ncccc23)O1 (stereo partly drawn) [Compound 7.8, 7-[1-(2,2-difluorocyclopropyl)-1H-pyrrol-3-yl]-5-{[(2S)-6,6-dimethylmorpholin-2-yl]methoxy}quinoline] | 3270 | 19.3
COCCn1ccc(-c2cc(OC[C@@H]3CNCCO3)c3cccnc3c2)c1 [Compound 7.9, 7-[1-(2-methoxyethyl)-1H-pyrrol-3-yl]-5-{[(2S)-morpholin-2-yl]methoxy}quinoline] | 2440 | 234
CC(C)n1ccc(-c2cc(OC[C@@H]3CNCC4(CC4)O3)c3cccnc3c2)c1 [Compound 7.13, 5-{[(5S)-4-oxa-7-azaspiro[2.5]octan-5-yl]methoxy}-7-[1-(propan-2-yl)-1H-pyrrol-3-yl]quinoline] | 4020 | 22.4
FC(F)Cn1cc(-c2cc(OC[C@@H]3CNCCCO3)c3cccnc3c2)cn1 [Compound 7.15, 7-[1-(2,2-difluoroethyl)-1H-pyrazol-4-yl]-5-{[(2S)-1,4-oxazepan-2-yl]methoxy}quinoline] | 2770 | 97.5
c1cnc2cc(-c3ccn(C4COC4)c3)cc(OC[C@@H]3CNCC4(CC4)O3)c2c1 [Compound 7.16, 5-{[(5S)-4-oxa-7-azaspiro[2.5]octan-5-yl]methoxy}-7-[1-(oxetan-3-yl)-1H-pyrrol-3-yl]quinoline] | 1710 | 19.8
CCn1ccc(-c2cc(OC[C@@H]3CNCC(C)(C)O3)c3cccnc3c2)c1 [Compound 7.17, 5-{[(2S)-6,6-dimethylmorpholin-2-yl]methoxy}-7-(1-ethyl-1H-pyrrol-3-yl)quinoline] | 1960 | 15.8
CCn1ccc(-c2cc(O[C@H](C)[C@@H]3CNCCO3)c3cccnc3c2)c1 [Compound 7.18, 7-(1-ethyl-1H-pyrrol-3-yl)-5-[(1R)-1-[(2S)-morpholin-2-yl]ethoxy]quinoline] | 1750 | 53.7
CC(C)n1ccc(-c2cc(O[C@H](C)[C@@H]3CNCCO3)c3cccnc3c2)c1 [Compound 7.19, 5-[(1R)-1-[(2S)-morpholin-2-yl]ethoxy]-7-[1-(propan-2-yl)-1H-pyrrol-3-yl]quinoline] | 1870 | 36.3
CCn1ccc(-c2cc(OC[C@@H]3CNCCO3)c3cccnc3c2)c1 [Compound 7.20, 7-(1-ethyl-1H-pyrrol-3-yl)-5-{[(2S)-morpholin-2-yl]methoxy}quinoline] | 1690 | 40
COCCn1ccc(-c2cc(OC[C@@H]3CNCC4(CC4)O3)c3nccnc3c2)c1 [Compound 8.1, 7-[1-(2-methoxyethyl)-1H-pyrrol-3-yl]-5-{[(5S)-4-oxa-7-azaspiro[2.5]octan-5-yl]methoxy}quinoxaline] | 1850 | 29.3
